Experimental data published in PubChem BioAssay AID248 (DTP/NCI, 2004).
Values joined by “and” are separate entries in the source; they are usually repeats but may differ in a detail not shown here. Identical values can stand only once. Inconclusive results and toxic doses are left out.

Test system: L1210 leukemia ip in BDF1 mice, survival T/C
Assay: NCI In Vivo Anticancer Drug Screen. Data for tumor model L1210 Leukemia (intraperitoneal) in B6D2F1 (BDF1) mice
Conditions: endpoint: mean survival time, higher = longer survival
Summary of the method: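 In this screen, tumor-bearing mice given compound are compared to those given vehicle, and their survival values are reported as a treated-to-control quotient.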

[1] = dose: 100.0 mg/kg/injection, schedule: Q01DX009 (ip), vehicle: saline with Tween-80
[2] = dose: 200.0 mg/kg/injection, schedule: Q01DX009 (ip), vehicle: saline with Tween-80
[3] = dose: 400.0 mg/kg/injection, schedule: Q01DX009 (ip), vehicle: saline with Tween-80
[4] = dose: 50.0 mg/kg/injection, schedule: Q01DX001 (ip), vehicle: saline
[5] = dose: 100.0 mg/kg/injection, schedule: Q01DX001 (ip), vehicle: saline
[6] = dose: 200.0 mg/kg/injection, schedule: Q01DX001 (ip), vehicle: saline
[7] = dose: 400.0 mg/kg/injection, schedule: Q01DX001 (ip), vehicle: saline
[8] = dose: 100.0 mg/kg/injection, schedule: Q04DX002 (ip), vehicle: saline with Tween-80
[9] = dose: 200.0 mg/kg/injection, schedule: Q04DX002 (ip), vehicle: saline with Tween-80
[10] = dose: 400.0 mg/kg/injection, schedule: Q04DX002 (ip), vehicle: saline with Tween-80
[11] = dose: 100.0 mg/kg/injection, schedule: Q04DX003 (ip), vehicle: Klucel (hydroxypropylcellulose) (HPC)
[12] = dose: 200.0 mg/kg/injection, schedule: Q04DX003 (ip), vehicle: Klucel (hydroxypropylcellulose) (HPC)
[13] = dose: 400.0 mg/kg/injection, schedule: Q04DX003 (ip), vehicle: Klucel (hydroxypropylcellulose) (HPC)
[14] = dose: 25.0 mg/kg/injection, schedule: Q01DX Z (ip), vehicle: carboxymethylcellulose (CMC)
[15] = dose: 50.0 mg/kg/injection, schedule: Q01DX Z (ip), vehicle: carboxymethylcellulose (CMC)
[16] = dose: 100.0 mg/kg/injection, schedule: Q01DX001 (ip), vehicle: carboxymethylcellulose (CMC)
[17] = dose: 200.0 mg/kg/injection, schedule: Q01DX001 (ip), vehicle: carboxymethylcellulose (CMC)
[18] = dose: 400.0 mg/kg/injection, schedule: Q01DX001 (ip), vehicle: carboxymethylcellulose (CMC)
[19] = dose: 100.0 mg/kg/injection, schedule: Q01DX009 (ip), vehicle: Klucel (hydroxypropylcellulose) (HPC)
[20] = dose: 200.0 mg/kg/injection, schedule: Q01DX009 (ip), vehicle: Klucel (hydroxypropylcellulose) (HPC)

CCOC(=O)CNC(=O)OCCN1CCNC1=S
T/C [1]: 98 % of control | T/C [2]: 100 % of control | T/C [3]: 101 % of control

CC(=O)C(C)CCOC1(C)OCCC1C (stereo not given)
T/C [4]: 103 % of control | T/C [5]: 116 % of control | T/C [6]: 100 % of control | T/C [7]: 103 % of control

CCSCN1CCN(CSCC)CC1
T/C [5]: 98 % of control | T/C [6]: 104 % of control

COC(=O)c1ccccc1NC1=NCCO1
T/C (dose: 50.0 mg/kg/injection, schedule: Q04DX002 (ip), vehicle: saline with Tween-80): 98 % of control | T/C [8]: 104 % of control | T/C [9]: 91 % of control | T/C [10]: 88 % of control

Cc1cccc(C(=O)O)n1.[Cu+2]
T/C (dose: 5.0 mg/kg/injection, schedule: Q01DX001 (ip), vehicle: saline): 103 % of control | T/C (dose: 10.0 mg/kg/injection, schedule: Q01DX001 (ip), vehicle: saline): 113 % of control

C/C=C/C(=O)Nc1cccc(O)c1
T/C [1]: 93 % of control | T/C [2]: 91 % of control | T/C [3]: 93 % of control

CCOC(=O)/C(=C/c1cccc2ccccc12)P(=O)(OCC)OCC
T/C [4]: 97 % of control | T/C [5]: 97 % of control | T/C [6]: 103 % of control | T/C [7]: 101 % of control

O=C1C=CC(=O)c2c(O)c(CBr)c(CBr)c(O)c21
T/C (dose: 6.25 mg/kg/injection, schedule: Q01DX009 (ip), vehicle: water): 101 % of control | T/C (dose: 12.5 mg/kg/injection, schedule: Q01DX009 (ip), vehicle: water): 92 % of control | T/C (dose: 25.0 mg/kg/injection, schedule: Q01DX009 (ip), vehicle: water): 93 % of control and 94 % of control | T/C (dose: 50.0 mg/kg/injection, schedule: Q01DX009 (ip), vehicle: water): 89 % of control

O=C(Nc1cc([N+](=O)[O-])ccc1O)c1ccccc1Cl
T/C (dose: 100.0 mg/kg/injection, schedule: Q01DX009 (ip), vehicle: saline): 101 % of control | T/C (dose: 200.0 mg/kg/injection, schedule: Q01DX009 (ip), vehicle: saline): 97 % of control | T/C (dose: 400.0 mg/kg/injection, schedule: Q01DX009 (ip), vehicle: saline): 98 % of control

O=C1C=C(Nc2ccc(N(CCCl)CCCl)cc2)c2ccccc2C1=O
T/C [11]: 107 % of control | T/C [12]: 114 % of control | T/C [13]: 95 % of control

CNc1ccc(/C=C2\C=Cc3ccccc32)cc1
T/C (dose: 12.0 mg/kg/injection, schedule: Q01DX Z (ip), vehicle: carboxymethylcellulose (CMC)): 95 % of control | T/C [14]: 98 % of control | T/C (dose: 50.0 mg/kg/injection, schedule: Q01DX001 (ip), vehicle: carboxymethylcellulose (CMC)): 101 % of control | T/C [15]: 120 % of control | T/C [16]: 101 % of control | T/C (dose: 100.0 mg/kg/injection, schedule: Q01DX Z (ip), vehicle: carboxymethylcellulose (CMC)): 93 % of control | T/C [17]: 108 % of control | T/C (dose: 200.0 mg/kg/injection, schedule: Q01DX Z (ip), vehicle: carboxymethylcellulose (CMC)): 98 % of control | T/C [18]: 100 % of control

COc1cc(/C=N/N=C(N)N)cc(I)c1O
T/C (dose: 15.0 mg/kg/injection, schedule: Q01DX Z (ip), vehicle: carboxymethylcellulose (CMC)): 100 % of control | T/C (dose: 30.0 mg/kg/injection, schedule: Q01DX Z (ip), vehicle: carboxymethylcellulose (CMC)): 106 % of control | T/C (dose: 30.0 mg/kg/injection, schedule: Q01DX Z (oral), vehicle: carboxymethylcellulose (CMC)): 102 % of control | T/C (dose: 60.0 mg/kg/injection, schedule: Q01DX Z (ip), vehicle: carboxymethylcellulose (CMC)): 112 % of control | T/C (dose: 60.0 mg/kg/injection, schedule: Q01DX Z (oral), vehicle: carboxymethylcellulose (CMC)): 95 % of control | T/C (dose: 120.0 mg/kg/injection, schedule: Q01DX Z (oral), vehicle: carboxymethylcellulose (CMC)): 98 % of control

BrCC1COc2ccccc2O1 (stereo not given)
T/C [16]: 100 % of control | T/C [17]: 100 % of control | T/C [18]: 91 % of control

O=C1/C(=C(/c2ccccc2)N2CCOCC2)Cc2ccccc21
T/C (dose: 25.0 mg/kg/injection, schedule: Q04DX003 (ip), vehicle: saline with Tween-80): 90 % of control | T/C (dose: 100.0 mg/kg/injection, schedule: Q04DX003 (ip), vehicle: saline with Tween-80): 95 % of control

Cc1ccc(/C=N\NC(=O)C(O)C(O)C(O)C(O)CO)cc1 (stereo not given)
T/C [8]: 91 % of control | T/C [9]: 91 % of control | T/C [10]: 109 % of control

C[SiH]1c2ccccc2CCc2ccccc21
T/C [19]: 102 % of control | T/C [11]: 104 % of control | T/C [20]: 104 % of control | T/C [12]: 105 % of control | T/C (dose: 400.0 mg/kg/injection, schedule: Q01DX009 (ip), vehicle: Klucel (hydroxypropylcellulose) (HPC)): 106 % of control | T/C [13]: 107 % of control

COc1c(Cl)cc2c(c1OC)N(C)C1N3C(=O)C4(C)SSC3(C(=O)N4C)C(O)C21O (stereo not given)
T/C (dose: 0.12 mg/kg/injection, schedule: Q01DX009 (ip), vehicle: Klucel (hydroxypropylcellulose) (HPC)): 106 % of control | T/C (dose: 0.25 mg/kg/injection, schedule: Q01DX009 (ip), vehicle: Klucel (hydroxypropylcellulose) (HPC)): 101 % of control | T/C (dose: 0.5 mg/kg/injection, schedule: Q01DX009 (ip), vehicle: Klucel (hydroxypropylcellulose) (HPC)): 110 % of control | T/C (dose: 1.0 mg/kg/injection, schedule: Q01DX009 (ip), vehicle: Klucel (hydroxypropylcellulose) (HPC)): 108 % of control

OC(CCl)C(O)C(O)C(O)CCl (stereo not given)
T/C (dose: 44.0 mg/kg/injection, schedule: Q01DX001 (ip), vehicle: saline): 103 % of control | T/C (dose: 66.0 mg/kg/injection, schedule: Q01DX001 (ip), vehicle: saline): 103 % of control | T/C (dose: 100.0 mg/kg/injection, schedule: Q01DX001 (ip), vehicle: saline with Tween-80): 95 % of control | T/C [5]: 103 % of control | T/C (dose: 150.0 mg/kg/injection, schedule: Q01DX001 (ip), vehicle: saline): 96 % of control | T/C (dose: 200.0 mg/kg/injection, schedule: Q01DX001 (ip), vehicle: saline with Tween-80): 92 % of control | T/C [6]: 101 % of control | T/C (dose: 400.0 mg/kg/injection, schedule: Q01DX001 (ip), vehicle: saline with Tween-80): 89 % of control | T/C [7]: 97 % of control

CCCCCCCCP(=O)(N1CC1)N1CC1
T/C (dose: 5.0 mg/kg/injection, schedule: Q01DX Z (ip), vehicle: carboxymethylcellulose (CMC)): 107 % of control | T/C (dose: 6.25 mg/kg/injection, schedule: Q01DX Z (ip), vehicle: carboxymethylcellulose (CMC)): 98 % of control | T/C (dose: 10.0 mg/kg/injection, schedule: Q01DX Z (ip), vehicle: carboxymethylcellulose (CMC)): 102 % of control | T/C (dose: 12.5 mg/kg/injection, schedule: Q01DX Z (ip), vehicle: carboxymethylcellulose (CMC)): 110 % of control | T/C (dose: 20.0 mg/kg/injection, schedule: Q01DX Z (ip), vehicle: carboxymethylcellulose (CMC)): 110 % of control | T/C [14]: 113 % of control | T/C (dose: 40.0 mg/kg/injection, schedule: Q01DX Z (ip), vehicle: carboxymethylcellulose (CMC)): 117 % of control | T/C [15]: 120 % of control

O=NN(CCCl)C(=O)Nc1ccc(Br)cc1
T/C (dose: 12.0 mg/kg/injection, schedule: Q01DX009 (ip), vehicle: carboxymethylcellulose (CMC)): 122 % of control | T/C (dose: 12.0 mg/kg/injection, schedule: Q01DX015 (ip), vehicle: carboxymethylcellulose (CMC)): 124 % of control | T/C (dose: 29.0 mg/kg/injection, schedule: Q01DX015 (ip), vehicle: carboxymethylcellulose (CMC)): 154 % of control | T/C (dose: 44.0 mg/kg/injection, schedule: Q01DX015 (ip), vehicle: carboxymethylcellulose (CMC)): 114 % of control and 89 % of control | T/C [16]: 157 % of control

O=C(Cn1ccc(=O)[nH]c1=O)c1ccco1
T/C (dose: 100.0 mg/kg/injection, schedule: Q04DX003 (ip), vehicle: saline): 102 % of control | T/C (dose: 200.0 mg/kg/injection, schedule: Q04DX003 (ip), vehicle: saline): 107 % of control | T/C (dose: 400.0 mg/kg/injection, schedule: Q04DX003 (ip), vehicle: saline): 98 % of control

CCC(C)C(C(=O)OCCN(CC)CC)c1ccccc1 (stereo not given)
T/C (dose: 50.0 mg/kg/injection, schedule: Q01DX009 (ip), vehicle: Klucel (hydroxypropylcellulose) (HPC)): 95 % of control | T/C [19]: 97 % of control | T/C [11]: 96 % of control | T/C [20]: 104 % of control | T/C [12]: 91 % of control
